Laboratory results: ChEMBL document CHEMBL1201862, “PubChem BioAssay data set” (2004)
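All cell lines were grown in 96-well plates and treated with compound for 48 hours. GI50 marks 50% less growth.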 Calls of active or inactive are those of the source. No stated cut-off is given here; in the data, active = GI50 up to about 1.1 µM and inactive = higher.

What was measured:
Experiment in all cases: NCI anticancer screen, dose series, 48 h
[1] = test system: A498
[2] = test system: MDA-MB-435
[3] = test system: RXF 393
[4] = test system: SK-MEL-2
[5] = test system: SF-295
[6] = test system: COLO 205
[7] = test system: MDA-N
[8] = test system: RPMI-8226
[9] = test system: HCT-116
[10] = test system: M19-MEL
[11] = test system: U-251
[12] = test system: HOP-62
[13] = test system: OVCAR-3
[14] = test system: NCI-H23
[15] = test system: HCC 2998
[16] = test system: SK-MEL-5
[17] = test system: SK-MEL-28
[18] = test system: NCI-H522
[19] = test system: BT-549
[20] = test system: A549

Measured: GI50

O=C1CCC(c2ccccc2)=NN1c1nc2ccccc2s1
inactive: [1] 30.1 µM | [2] 23.3 µM | [3] 15.4 µM | [4] 20.1 µM | [5] 25.7 µM | [6] 13.2 µM | [7] 27.9 µM | [8] 27 µM | [9] 29.5 µM | [10] 28.3 µM | [11] 29.4 µM | [12] 36.9 µM | [13] 17.9 µM | [14] 30.2 µM | [15] 26.9 µM | [16] 20.4 µM | [17] 40.2 µM | [18] 24.5 µM | [19] 27.6 µM | [20] 35.9 µM
